Experimental data taken from patent US11034724B2, “Crystalline salt forms of Boc-D-Arg-DMT-Lys-(Boc)-Phe-NH2” (Stealth BioTherapeutics Corp., priority 2017, dated 2021).
Converted amounts (≈) assume the structure as drawn. Read-outs that look alike come from different tables or passages of the source. Non-standard residues stand in square brackets, D forms with d. Residues, ends and D or L forms follow the SMILES beside them. *: point of attachment. Dmt = Cc1cc(O)cc(C)c1C[C@H](N)C(=O)O; Boc = CC(C)(C)OC(=O)*

Tests used:
Format in all cases: physicochemical
[1] = Approximate solubility assessment (solvent addition technique); details: dichloromethane, 35° C. for dichloromethane, read-out: Approximate Solubility (50° C.)
[2] = as above
Experimental: Approximate Solubility Assessment of Boc-D-Arg-DMT-Lys(Boc)-Phe-NH2
The solubility screen was carried out as follows: • Approximately 20 mg of Boc-D-Arg-DMT-Lys(Boc)-Phe-NH2 was weighed out into each vial. • Each solvent/solvent mixture was added to the appropriate vial in 5 volume aliquots (100 μL). • In between additions, the sample was stirred at 50° C.
The solubility assessment was estimated by a solvent addition technique, heating at 50° C. between aliquots (see Table 9).

[3] = Gravimetric vapour sorption (GVS), hygroscopicity
Experimental: Gravimetric Vapour Sorption (GVS)
Approximately 15 mg of sample was placed into a mesh vapour sorption balance pan and loaded into an IGASorp Moisture Sorption Analyser balance by Hiden Analytical. The sample was subjected to a ramping profile from 40-90% relative humidity (RH) at 10% increments, maintaining the sample at each step until a stable weight had been achieved (98% step completion). After completion of the sorption cycle, the sample was dried using the same procedure to 0% RH, then subjected to a second ramping profile from 0-90% relative humidity. After completion of the second sorption cycle, the sample was dried using the same procedure to 0% RH, and finally taken back to the starting point of 40% RH. The weight change during the sorption/desorption cycles were plotted, allowing for the hygroscopic nature of the sample to be determined.

Cc1cc(O)cc(C)c1C[C@H](NC(=O)[C@@H](CCCNC(=N)N)NC(=O)OC(C)(C)C)C(=O)N[C@@H](CCCCNC(=O)OC(C)(C)C)C(=O)N[C@@H](Cc1ccccc1)C(N)=O [Boc-D-Arg-DMT-Lys(Boc)-Phe-NH2] (Boc-[dR][Dmt]K(Boc)F-NH2)
solubility [1]: < 10 mg/mL
solubility ([2]; 2-butanol, solvent 2-Butanol, 50° C., read-out: Approximate Solubility (50° C.)): 17 mg/mL (≈ 20.2 mM)
solubility ([2]; 2-propanol, solvent 2-Propanol, 50° C., read-out: Approximate Solubility (50° C.)): 14 mg/mL (≈ 16.7 mM)
solubility ([2]; 2-propanol:water (50:50% v/v), solvent 2-propanol:water (50:50% v/v), 50° C., read-out: Approximate Solubility (50° C.)): ~100 mg/mL (≈ 119 mM)
solubility ([2]; DMSO:acetone (50:50% v/v), solvent DMSO:acetone (50:50% v/v), 50° C., read-out: Approximate Solubility (50° C.)): ≥ 200 mg/mL
solubility ([2]; DMSO:water (50:50% v/v), solvent DMSO:water (50:50% v/v), 50° C., read-out: Approximate Solubility (50° C.)): 24 mg/mL (≈ 28.6 mM)
solubility ([2]; acetone, solvent Acetone, 50° C., read-out: Approximate Solubility (50° C.)): < 10 mg/mL
solubility ([2]; acetone:water (50:50% v/v), solvent Acetone:water (50:50% v/v), 50° C., read-out: Approximate Solubility (50° C.)): 58 mg/mL (≈ 69 mM)
solubility ([2]; acetonitrile, solvent Acetonitrile, 50° C., read-out: Approximate Solubility (50° C.)): < 10 mg/mL
solubility ([2]; acetonitrile:water (50:50% v/v), solvent Acetonitrile:water (50:50% v/v), 50° C., read-out: Approximate Solubility (50° C.)): ≥ 200 mg/mL
solubility ([2]; all other solvent systems: acetone, dichloromethane, 2-butanol, 2-propanol, methyl ethyl ketone, toluene, THF, ethyl acetate, acetonitrile, read-out: Poor solubility): ≤ 17 mg/mL
solubility ([2]; ethanol, solvent Ethanol, 50° C., read-out: Approximate Solubility (50° C.)): ~140 mg/mL (≈ 167 mM)
solubility ([2]; ethanol:water (50:50% v/v), solvent Ethanol:water (50:50% v/v), 50° C., read-out: Approximate Solubility (50° C.)): ~100 mg/mL (≈ 119 mM)
solubility ([2]; ethyl acetate, solvent Ethyl acetate, 50° C., read-out: Approximate Solubility (50° C.)): < 10 mg/mL
solubility ([2]; in acetone:water (50:50 v/v), methanol:water (50:50 v/v) and DMSO:water (50:50 v/v), 50° C.): 58 to 24 mg/mL
solubility ([2]; methanol, solvent Methanol, 50° C., read-out: Approximate Solubility (50° C.)): ≥ 200 mg/mL
solubility ([2]; methanol:water (50:50% v/v), solvent Methanol:water (50:50% v/v), 50° C., read-out: Approximate Solubility (50° C.)): 45 mg/mL (≈ 53.6 mM)
solubility ([2]; methyl ethyl ketone, solvent Methyl ethyl ketone, 50° C., read-out: Approximate Solubility (50° C.)): < 10 mg/mL
solubility ([2]; tetrahydrofuran, solvent Tetrahydrofuran, 50° C., read-out: Approximate Solubility (50° C.)): < 10 mg/mL
solubility ([2]; toluene, solvent Toluene, 50° C., read-out: Approximate Solubility (50° C.)): < 10 mg/mL
solubility ([2]; trifluoroethanol, solvent Trifluoroethanol, 50° C., read-out: Approximate Solubility (50° C.)): ≥ 200 mg/mL
Mass increase by GVS ([3]; between 40-90% RH, received, predominantly amorphous material): ca. 10%
Hygroscopicity after crystallization ([3]; crystallized material compared with the amorphous input): did not show an improvement in terms of hygroscopicity
Hygroscopicity by GVS analysis ([3]; received, predominantly amorphous material): highly hygroscopic
